Converted amounts (≈) assume the structure as drawn. Read-outs that look alike come from different tables or passages of the source.
Assays:
[1] = test system: H460 (human lung cancer cell); assay: In vitro anti-tumor cellular activity (MTT), H460; assay type: cell-based; details: for IC50: Homo sapiens, read-out: H460 IC50
[2] = test system: U87MG (Human malignant glioblastoma cells); assay: In vitro anti-tumor cellular activity (MTT), U87MG; assay type: cell-based; details: for IC50: Homo sapiens, U-87 MG, read-out: U87MG IC50
[3] = test system: HT-29 (colon cancer cell); assay: In vitro anti-tumor cellular activity (MTT), HT-29; assay type: cell-based, human; details: for IC50: Homo sapiens, read-out: HT-29 IC50
[4] = test system: MKN-45 (human gastric carcinoma cell); assay: In vitro anti-tumor cellular activity (MTT), MKN-45; assay type: cell-based; details: for IC50: Homo sapiens, read-out: MKN-45 IC50
[5] = test system: SMMC-7721 (hepatoma cell); assay: In vitro anti-tumor cellular activity (MTT), SMMC-7721; assay type: cell-based, human; details: for IC50: Homo sapiens, read-out: SMMC-7721 IC50
[6] = molecular target: T1, c-Met (His-tagged recombinant human Met (Amino acids 974-ends)) (Homo sapiens, UniProt P08581); assay: c-Met kinase assay (ELISA); assay type: biochemical; details: 50 pM c-Met, 5 μM ATP, 20 min
T1 construct: His-tagged recombinant human Met (Amino acids 974-ends); His; host or cells: baculovirus expression
T1 sequence (P08581 974-1390 limits assumed): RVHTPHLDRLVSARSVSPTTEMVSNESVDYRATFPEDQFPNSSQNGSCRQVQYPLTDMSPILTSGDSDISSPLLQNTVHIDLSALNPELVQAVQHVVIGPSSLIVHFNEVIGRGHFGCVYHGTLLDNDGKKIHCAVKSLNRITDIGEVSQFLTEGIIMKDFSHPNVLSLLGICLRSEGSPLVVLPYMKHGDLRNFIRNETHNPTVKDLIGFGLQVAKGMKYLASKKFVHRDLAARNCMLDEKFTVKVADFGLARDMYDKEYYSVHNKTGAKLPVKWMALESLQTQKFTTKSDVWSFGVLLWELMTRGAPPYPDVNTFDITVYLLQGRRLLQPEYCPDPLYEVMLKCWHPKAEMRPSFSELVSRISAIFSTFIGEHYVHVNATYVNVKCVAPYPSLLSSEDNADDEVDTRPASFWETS
Method: c-Met kinase activity was measured with an ELISA reader.
The reaction mixture was removed by washing with 0.2 μg/mL conjugated horseradish peroxidase (HRP) monoclonal antibody specific for phosphotyrosine (PY20) detecting phosphorylation of the substrate polymer. 1M phosphoric acid was added to terminate the color, the chromogenic substrate (TMB) was tested by spectrophotometry at 450 nm.

Compound | IC50 [6] [µM] | IC50 ([1]; NCI-H460, 72 h) [µg/mL] | IC50 ([2]; 72 h) [µg/mL] | IC50 ([3]; HT-29, 72 h) [µg/mL] | IC50 ([5]; SMMC-7721, 72 h) [µg/mL] | IC50 ([4]; MKN-45, 72 h) [µg/mL] | further results
COc1cc2c(Oc3ccc(NC(=O)c4nn(-c5ccc(F)cc5)c5ccccc5c4=O)cc3F)cnnc2cc1OCCCN1CCN(C)CC1 [Example 69, N-(3-fluoro-4-((6-methoxy-7-(3-(4-methylpiperazin-1-yl)propoxy)cinnolin-4-yl)oxy)phenyl)-1-(4-fluorophenyl)-4-oxo-1,4-dihydrocinnoline-3-carboxamide] | 1.55 |  |  |  |  |  | IC50 ([1]; NCI-H460, MTT, 72 hours, H460): 2.3 µg/mL (≈ 3.25 µM); IC50 ([2]; MTT, 72 hours, U87MG): 1.8 µg/mL (≈ 2.54 µM); IC50 ([3]; MTT, 72 hours, HT-29): 2.1 µg/mL (≈ 2.97 µM); IC50 ([4]; MTT, 72 hours, MKN-45): 2.6 µg/mL (≈ 3.67 µM); IC50 ([5]; MTT, 72 hours, SMMC-7721): 1.3 µg/mL (≈ 1.84 µM)
N-(3-fluoro-4-((6-methoxy-7-(3-(piperidin-1-yl)propoxy)quinolin-4-yl)oxy)phenyl)-1-(4-fl uorophenyl)-4-oxo-1,4-dihydroquinoline-3-carboxamide dihydrochloride [Example 49] |  |  |  |  |  |  | H460 IC50 ([1]; MTT, 72 hours, H460): 1.1 µg/mL; U87MG IC50 ([2]; MTT, 72 hours, U87MG): 0.9 µg/mL; HT-29 IC50 ([3]; MTT, 72 hours, HT-29): 1.3 µg/mL; MKN-45 IC50 ([4]; MTT, 72 hours, MKN-45): 0.76 µg/mL; SMMC-7721 IC50 ([5]; MTT, 72 hours, SMMC-7721): 0.99 µg/mL; c-Met IC50 [6]: 0.6 µg/mL
N-(3-fluoro-4-((6-methoxy-7-(3-(4-methylpiperazin-1-yl)propoxy)quinolin-4-yl)oxy)phenyl)-1-(2-chlorophenyl)-4-oxo-1,4-dihydrocinnoline-3-carboxamide dihydrochloride [Example 17] |  |  |  |  |  |  | H460 IC50 ([1]; MTT, 72 hours, H460): 1.4 µg/mL; U87MG IC50 ([2]; MTT, 72 hours, U87MG): 0.9 µg/mL; HT-29 IC50 ([3]; MTT, 72 hours, HT-29): 1.8 µg/mL; MKN-45 IC50 ([4]; MTT, 72 hours, MKN-45): 2.1 µg/mL; SMMC-7721 IC50 ([5]; MTT, 72 hours, SMMC-7721): 0.5 µg/mL; c-Met IC50 [6]: 0.2 µg/mL
COc1cc2c(Oc3ccc(NC(=O)c4nn(-c5ccccc5F)c5ccccc5c4=O)cc3F)ccnc2cc1OCCCN1CCCC1 [Example 41, N-(3-fluoro-4-((6-methoxy-7-(3-(pyrrolidin-1-yl)propoxy)quinolin-4-yl)oxy)phenyl)-1-(2-fluorophenyl)-4-oxo-1,4-dihydrocinnoline-3-carboxamide] | 2.07 |  |  |  |  |  | 
N-(3-fluoro-4-((6-methoxy-7-(3-(4-methylpiperazin-1-yl)propoxy)quinolin-4-yl)oxy)phenyl)-1-(4-bromophenyl)-4-oxo-1,4-dihydrocinnoline-3-carboxamide [Example 40] |  |  |  |  |  |  | c-Met IC50 [6]: 0.9 µg/mL
COc1cc2c(Oc3ccc(NC(=O)c4nn(-c5ccc(Br)cc5)c5ccccc5c4=O)cc3F)cnnc2cc1OCCCN1CCCCC1 [Example 65, N-(3-fluoro-4-((6-methoxy-7-(3-(piperidin-1-yl)propoxy)cinnolin-4-yl)oxy)phenyl)-1-(4-bromophenyl)-4-oxo-1,4-dihydrocinnoline-3-carboxamide] | 0.902 |  |  |  |  |  | 
COc1cc2c(Oc3ccc(NC(=O)c4cn(-c5ccc(F)c(F)c5)c5ccccc5c4=O)cc3F)ccnc2cc1OCCCN1CCCCC1 [Example 60, N-(3-fluoro-4-((6-methoxy-7-(3-(piperidin-1-yl)propoxy)quinolin-4-yl)oxy)phenyl)-1-(3,4-difluorophenyl)-4-oxo-1,4-dihydroquinoline-3-carboxamide] | 0.409 |  |  |  |  |  | 
COc1cc2c(Oc3ccc(NC(=O)c4nn(-c5ccc(Cl)cc5Cl)c5ccccc5c4=O)cc3F)cnnc2cc1OCCCN1CCCC1 [Example 70, N-(3-fluoro-4-((6-methoxy-7-(3-(pyrrolidin-1-yl)propoxy)cinnolin-4-yl)oxy)phenyl)-1-(2,4-dichlorophenyl)-4-oxo-1,4-dihydrocinnoline-3-carboxamide] | 0.959 | 2.6 (≈ 3.56 µM) | 2.1 (≈ 2.88 µM) | 3.2 (≈ 4.39 µM) | 1.8 (≈ 2.47 µM) |  | 
COc1cc2c(Oc3ccc(NC(=O)c4nn(-c5ccc(F)cc5)c5ccccc5c4=O)cc3F)ccnc2cc1OCCCN1CCN(C)CC1 [Example 42, N-(3-fluoro-4-((6-methoxy-7-(3-(4-methylpiperazin-1-yl)propoxy)quinolin-4-yl)oxy)phenyl)-1-(4-fluorophenyl)-4-oxo-1,4-dihydrocinnoline-3-carboxamide] | 1.41 |  |  |  |  |  | IC50 ([1]; NCI-H460, MTT, 72 hours, H460): 2.7 µg/mL (≈ 3.82 µM); IC50 ([2]; MTT, 72 hours, U87MG): 2.1 µg/mL (≈ 2.97 µM); IC50 ([3]; MTT, 72 hours, HT-29): 1.5 µg/mL (≈ 2.12 µM); IC50 ([5]; MTT, 72 hours, SMMC-7721): 1.6 µg/mL (≈ 2.26 µM)
COc1cc2c(Oc3ccc(NC(=O)c4nn(-c5ccccc5OC(F)(F)F)c5ccccc5c4=O)cc3F)ccnc2cc1OCCCN1CCOCC1 [Example 37, N-(3-fluoro-4-((6-methoxy-7-(3-(morpholin-4-yl)propoxy)quinolin-4-yl)oxy)phenyl)-1-(2-(trifluoromethoxy)phenyl)-4-oxo-1,4-dihydrocinnoline-3-carboxamide] |  | 1.9 (≈ 2.5 µM) | 2.1 (≈ 2.76 µM) | 0.9 (≈ 1.18 µM) | 1.5 (≈ 1.97 µM) | 2.3 (≈ 3.03 µM) | 
N-(3-fluoro-4-((6-methoxy-7-(3-(4-methylpiperidin-1-yl)propoxy)quinolin-4-yl)oxy)phenyl)-1-(4-fluorophenyl)-4-oxo-1,4-dihydrocinnoline-3-carboxamide [Example 13] |  |  |  |  |  |  | H460 IC50 ([1]; MTT, 72 hours, H460): 0.081 µg/mL; U87MG IC50 ([2]; MTT, 72 hours, U87MG): 0.45 µg/mL; HT-29 IC50 ([3]; MTT, 72 hours, HT-29): 0.18 µg/mL; MKN-45 IC50 ([4]; MTT, 72 hours, MKN-45): 0.23 µg/mL; SMMC-7721 IC50 ([5]; MTT, 72 hours, SMMC-7721): 0.67 µg/mL
COc1cc2c(Oc3ccc(NC(=O)c4nn(-c5cccc(C(F)(F)F)c5)c5ccccc5c4=O)cc3F)ccnc2cc1OCCCN1CCCCC1 [Example 6, N-(3-fluoro-4-((6-methoxy-7-(3-(piperidin-1-yl)propoxy)quinolin-4-yl)oxy)phenyl)-1-(3-(trifluoromethyl)phenyl)-4-oxo-1,4-dihydrocinnoline-3-carboxamide] |  | 1.7 (≈ 2.29 µM) | 1.4 (≈ 1.89 µM) | 0.63 (≈ 0.849 µM) | 1.3 (≈ 1.75 µM) | 0.1 (≈ 0.135 µM) | 
COc1cc2c(Oc3ccc(NC(=O)c4nn(-c5c(Cl)cccc5Cl)c5ccccc5c4=O)cc3F)ccnc2cc1OCCCN1CCCCC1 [Example 29, N-(3-fluoro-4-((6-methoxy-7-(3-(piperidin-1-yl)propoxy)quinolin-4-yl)oxy)phenyl)-1-(2,6-dichlorophenyl)-4-oxo-1,4-dihydrocinnoline-3-carboxamide] |  | 0.77 (≈ 1.04 µM) | 0.74 (≈ 0.996 µM) | 0.44 (≈ 0.592 µM) | 1.2 (≈ 1.62 µM) | 0.67 (≈ 0.902 µM) | 
COc1cc2c(Oc3ccc(NC(=O)c4nn(-c5c(Cl)cccc5Cl)c5ccccc5c4=O)cc3F)ccnc2cc1OCCCN1CCC(C)CC1 [Example 30, N-(3-fluoro-4-((6-methoxy-7-(3-(4-methylpiperidin-1-yl)propoxy)quinolin-4-yl)oxy)phenyl)-1-(2,6-dichlorophenyl)-4-oxo-1,4-dihydrocinnoline-3-carboxamide] |  | 0.7 (≈ 0.925 µM) | 0.27 (≈ 0.357 µM) | 0.49 (≈ 0.648 µM) | 0.1 (≈ 0.132 µM) | 0.5 (≈ 0.661 µM) | 
COc1cc2c(Oc3ccc(NC(=O)c4nn(-c5ccccc5F)c5ccccc5c4=O)cc3F)cnnc2cc1OCCCN1CCCC1 [Example 63, N-(3-fluoro-4-((6-methoxy-7-(3-(pyrrolidin-1-yl)propoxy)cinnolin-4-yl)oxy)phenyl)-1-(2-fluorophenyl)-4-oxo-1,4-dihydrocinnoline-3-carboxamide] | 1.18 |  |  |  |  |  | IC50 ([1]; NCI-H460, MTT, 72 hours, H460): 1.6 µg/mL (≈ 2.36 µM); IC50 ([2]; MTT, 72 hours, U87MG): 1.8 µg/mL (≈ 2.65 µM); IC50 ([3]; MTT, 72 hours, HT-29): 1.3 µg/mL (≈ 1.92 µM); IC50 ([5]; MTT, 72 hours, SMMC-7721): 0.9 µg/mL (≈ 1.33 µM)
COc1cc2c(Oc3ccc(NC(=O)c4nn(-c5ccc(C)cc5C)c5ccccc5c4=O)cc3F)ccnc2cc1OCCCN1CCCC1 [Example 25, N-(3-fluoro-4-((6-methoxy-7-(3-(pyrrolidin-1-yl)propoxy)quinolin-4-yl)oxy)phenyl)-1-(2,4-dimethylphenyl)-4-oxo-1,4-dihydrocinnoline-3-carboxamide] |  | 0.89 (≈ 1.29 µM) | 2.9 (≈ 4.22 µM) | 1.1 (≈ 1.6 µM) | 0.76 (≈ 1.11 µM) | 1.5 (≈ 2.18 µM) | 
COc1cc2c(Oc3ccc(NC(=O)c4nn(-c5cc(C(F)(F)F)ccc5Cl)c5ccccc5c4=O)cc3F)ccnc2cc1OCCCN1CCCC1 [Example 22, N-(3-fluoro-4-((6-methoxy-7-(3-(pyrrolidin-1-yl)propoxy)quinolin-4-yl)oxy)phenyl)-1-(2-chloro-5-(trifluoromethyl)phenyl)-4-oxo-1,4-dihydrocinnoline-3-carboxamide] |  | 0.54 (≈ 0.709 µM) | 0.96 (≈ 1.26 µM) | 0.81 (≈ 1.06 µM) | 0.54 (≈ 0.709 µM) | 0.28 (≈ 0.367 µM) | 

From US20140364431A1, “Quinoline and cinnoline derivatives and their applications” (Shenyang Pharmaceutical University, priority 2011, published 2014)
